Measurements as given in patent publication US20140315754A1, “METHODS AND COMPOSITIONS FOR ASSESSING AND TREATING CANCER” (The Board of Regents of the University of Texas System, priority 2013, published 2014).

What was measured:
[1] = test system: 5′ promoter of DCLK1 gene (L-DCLK1 expression); assay: RT-PCR expression of L/S DCLK1 in HCT-116 cells before or after 5-Aza-Cytidine; type: cell-based, human; conditions: FIG. 12B
From the text: FIG. 12 (A) Methylation of CpG sites in 5′-promoter of DCLK1-gene in cell lines/human samples; NC=normal colon; CRC=colorectal cancer. (B) Expression of L/S DCLK1 in HCT-116 cells before (−) or after (+) treatment with 5-Aza-Cytidine by RT-PCR.
Recent reports have confirmed DNA methylation of 5′ promoter of DCLK1 gene in CRCs (Vedeld et al. Epigenetics 2014, 9(3).30). Thus, DNA methylation of 5′ promoter leads to epigenetic silencing and loss of L expression in cancer cells/tumors.

[2] = test system: DCLK1 positive cancer cells (CSCs); assay: In vitro relapse assay (spheroid re-growth from cancer stem cells); type: cell-based
From the text: In certain embodiments an expression vector can be used to provide an inhibitory RNA to a cell in vitro or in vivo. […] Thus accumulating evidence from literature and from our laboratory strongly supports a critical role of DCLK1 in cancer stem cell biology.

COL3A1 promoter = assay: Promoter activity of COL3A1 constructs in HCT116 cells; type: cell-based, human; conditions: C-Luciferase reporter, FIG. 14
From the text: FIG. 14 HTS Bioassay: (A) RT-PCR analysis of COL3A1 in ShC and ShD clones (5′upstream nucleotide sequence of COL3A1 gene is provided in SEQ ID NO:10). (B) The map of the promoter constructs fused to secretable Cypridina Luciferase (C-Luciferase). (C) The flow diagram of the method used to measure the promoter activity of COL3A1 constructs in HCT116 cells. (D) The promoter activity of COL3A1 constructs in HCT116 cells.
The inventors developed bioassays for […] (HTS), using promoter-reporter constructs of genes identified as being down stream of DCLK1-S, but not DCLK1-L (FIG. 15). As an example of the bioassays developed, the inventors generated promoter-reporter constructs of COL3A1 gene in pCLuc-BASIC-2 vector, based on published sequence of the Col3A1 gene (FIG. 14A-14C) and transiently transfected ShC/ShD clones of HCT-116 cells, as per protocol shown in FIG. 14D. […] Data obtained from the HTS assays with the specific bioassays will help identify specific molecules from available chemical libraries, which will then allow the development of safe and effective drugs for inhibiting tumorigenic/metastatic potential of cancer stem cells, while sparing the functions of normal stem cells in intestinal crypts, as a non-toxic treatment strategy for colorectal/pancreatic cancers, and other cancers as well, which are found to be dependent on the expression of DCLK1-S.

| Compound | expression of L-DCLK1 [1] | relapse/re-growth of spheroids [2] | promoter activity of COL3A1 constructs (COL3A1 promoter) |
| --- | --- | --- | --- |
| Nc1ncn([C@@H]2O[C@H](CO)[C@@H](O)[C@H]2O)c(=O)n1 [5 aza cytidine] | re-expression of L-DCLK1 | – | – |
| COc1cc(/C=C/C(=O)CC(=O)/C=C/c2ccc(O)c(OC)c2)ccc1O [curcumin] | – | underwent autophagic survival and re-grew (relapse) as spheroids | – |
| shRNA: DCLK1 targeting shRNA; shrna sequence ATCGTTCTGTTATTGTAGC in pGZIP Lentiviral vector (ShD clones) (pGZIP lentiviral vector) | – | eliminated relapse/re-growth of spheroids | loss of promoter activity |
